pIC50: −log10 of the molar value.
molecular target: hERG channel (Homo sapiens (Human), UniProt Q12809); test: In vitro hERG inhibitory activity, whole-cell patch-clamp on CHO-K1 cell line stably expressing the hERG channel; conditions: not given
Text: Rapid delayed rectifier current (IKr) was mainly mediated by the hERG ion channel and involved in human cardiomyocyte repolarization. Inhibition of IKr was the leading cause of the clinical QT interval prolongation syndrome, even acute cardiac dysrhythmia, and even sudden death. By utilizing a whole-cell patch-clamp technology, the blocking effect of a compound on the hERG channel was detected on a CHO-K1 cell line stably expressing the hERG channel, and the half inhibition concentration IC50 of the compound was determined. It was used as a part of the comprehensive cardiac safety assessment, and it was initially evaluated in the safety in vitro screen for cardiotoxicity.
This assay included the following aspects: • The hERG current was recorded on the CHO-K1 cell line stably expressing the hERG channel by utilizing the manual patch-clamp technology; • The inhibition rate at each concentration was calculated according to the hERG tail current; • The measurement was performed at 5 concentrations for each compound to calculate the IC50 value; • 3 cells were tested at each concentration; • One positive control drug was provided.
The hERG current was recorded by utilizing a whole-cell patch-clamp technology. The cell suspension was added to a dish, and the dish was placed on the object stage of an upright microscope. After adhesion of the cells, perfusion was performed with an extracellular fluid at a flow rate of […]. A glass microelectrode was pulled with a microelectrode puller via a two-step process and the pipette rip resistance was between 2-5 MΩ. After the whole-cell record was set up, the clamp potential was held at −80 mV. The cells were depolarized to +60 mV by applying a voltage stimulus and then repolarized to −50 mV to elicit the hERG tail current. All recordation was conducted after the current became stable. The extracellular perfusion administration was started from the lowest concentration, staying for 5-10 min at each concentration until the current was stable, and then conducted with the next concentration.

Chain of hERG channel (Q12809 whole entry): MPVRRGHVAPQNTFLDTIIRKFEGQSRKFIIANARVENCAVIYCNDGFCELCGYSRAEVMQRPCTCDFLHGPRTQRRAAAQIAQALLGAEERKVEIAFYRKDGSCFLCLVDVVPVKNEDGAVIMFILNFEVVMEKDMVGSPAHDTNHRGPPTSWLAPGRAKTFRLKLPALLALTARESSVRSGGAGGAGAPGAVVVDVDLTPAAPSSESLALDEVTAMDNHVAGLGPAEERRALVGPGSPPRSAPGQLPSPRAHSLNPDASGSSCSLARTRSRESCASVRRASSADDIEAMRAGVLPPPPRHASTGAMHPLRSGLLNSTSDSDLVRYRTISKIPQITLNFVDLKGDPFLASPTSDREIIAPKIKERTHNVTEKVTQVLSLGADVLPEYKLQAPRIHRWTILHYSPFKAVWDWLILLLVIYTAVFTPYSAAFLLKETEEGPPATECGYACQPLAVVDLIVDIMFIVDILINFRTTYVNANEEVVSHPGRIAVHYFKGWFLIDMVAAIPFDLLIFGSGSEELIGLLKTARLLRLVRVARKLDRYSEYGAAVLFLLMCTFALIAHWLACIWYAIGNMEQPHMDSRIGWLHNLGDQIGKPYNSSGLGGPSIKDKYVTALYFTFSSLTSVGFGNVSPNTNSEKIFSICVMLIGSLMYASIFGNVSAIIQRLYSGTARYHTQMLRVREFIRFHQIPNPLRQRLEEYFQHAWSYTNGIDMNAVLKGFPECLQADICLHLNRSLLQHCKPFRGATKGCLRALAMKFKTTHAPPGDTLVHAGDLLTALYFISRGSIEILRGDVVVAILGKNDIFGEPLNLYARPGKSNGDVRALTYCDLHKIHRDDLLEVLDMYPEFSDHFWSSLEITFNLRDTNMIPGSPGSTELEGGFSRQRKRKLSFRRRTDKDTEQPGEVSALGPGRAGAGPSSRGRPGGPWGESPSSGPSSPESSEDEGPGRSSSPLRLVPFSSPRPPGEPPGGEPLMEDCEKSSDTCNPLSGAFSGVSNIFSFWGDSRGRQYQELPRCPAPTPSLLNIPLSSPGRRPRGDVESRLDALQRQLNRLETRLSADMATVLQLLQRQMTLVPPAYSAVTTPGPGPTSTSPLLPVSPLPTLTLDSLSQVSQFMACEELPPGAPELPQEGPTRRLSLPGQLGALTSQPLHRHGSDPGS

SMILES | pIC50
CC(=O)N[C@@H]1CCC[C@H](C(=O)Nc2cc(-c3cccc4ccoc34)c(F)cn2)C1 [Compound 19] | < 4.52
COc1cc(F)ccc1-c1cc(NC(=O)C2CCCC(NC(C)=O)C2)ncc1F (stereo not drawn) [Compound 3] | < 4.52
COc1ccccc1-c1cc(NC(=O)[C@H]2CCC[C@@H](NC(C)=O)C2)ncc1F [Compound 17] | < 4.52
COc1cc(F)ccc1-c1cc(NC(=O)[C@H]2CCC[C@@H](NC(=O)c3ccccn3)C2)ncc1F [Compound 43] | < 4.52
COc1cc(F)ccc1-c1cc(NC(=O)[C@H]2CCC[C@@H](NC(=O)CC#N)C2)ncc1F [Compound 32] | < 4.52
COC(=O)N[C@@H]1CCC[C@H](C(=O)Nc2cc(-c3ccc(F)cc3OC)c(F)cn2)C1 [Compound 36] | < 4.52
CNC(=O)N[C@@H]1CCC[C@H](C(=O)Nc2cc(-c3ccc(F)cc3OC)c(F)cn2)C1 [Compound 37] | < 4.52
COc1cc(F)ccc1-c1cc(NC(=O)[C@H]2CCC[C@@H](NS(C)(=O)=O)C2)ncc1F [Compound 25] | < 4.52
CC(=O)N[C@@H]1CCC[C@H](C(=O)Nc2cc(-c3ccc(F)cc3OC(C)C)c(F)cn2)C1 [Compound 8] | < 4.52
COc1cc(F)ccc1-c1cc(NC(=O)[C@H]2CCC[C@@H](NC(=O)[C@H](C)O)C2)ncc1F [Compound 48] | < 4.52

tested on: MV4;11 cells; test: In vitro MV4;11 cell proliferation inhibition (MTT method); type: cell-based; conditions: Homo sapiens
Text: The in vitro inhibitory effect of the synthesized compounds on cell proliferation was investigated.
The trade name of MTT was thiazole blue, which was a tetrazolium salt of a dye that could accept hydrogen atoms. […] Dimethyl sulfoxide could dissolve blue-purple complexes in cells, and its light absorption value could be measured at 490-550 nm wavelength with an enzyme-linked immunosorbent detector, which could indirectly reflect the number of cells. Within a certain range of the cell number, the amount of MTT crystals formed was proportional to the number of cells. The drug to be tested was successively diluted to different concentrations and added to a 96-well plate. The OD value was determined after the drug acted for a certain time. The size of the OD value could reflect the number of living cells, and its IC50 value was calculated with SPSS19.0.
Suspension of cells: Cells were […] by centrifugation and counted. A certain density of cell suspension was formulated with a complete culture medium, blown evenly, inoculated on a 96-well plate, 100 μL per well, and then cultured in a CO2 incubator.
An appropriate amount of the drug was added to a calculated amount of DMSO and dissolved. The resulting mixture was dispensed and stored at −20° C. The formulation concentration was 10 mM.
The stock solution of the compound having a concentration of 10 mM was diluted into different concentrations (8 concentrations) of solutions of the compound in DMSO (3-fold dilution, 20×final concentration). Each concentration of solutions (10 μL) of the compound in DMSO was respectively diluted with cell culture media (90 μL) to formulate working solutions (2×final concentration). Each concentration of working solutions (100 μL) of the compound was added to the 96-well plate inoculated with cells (1×final concentration, the highest final concentration is 1000 nM). The resulting plate continued to be cultured in a CO2 incubator.
The 96-well plate was taken out, and the density of cells was observed under a microscope. The test was performed with the MTT method.
MTT method: 20 μL of MTT was added to each well; the plate was cultured for about 4 hours in the incubator; the liquid in the well was discarded; 150 μL of DMSO was added into each well; the plate was placed in a shaker and shaken for 5-10 minutes, and the test was performed with a microplate reader at a wavelength of 550 nm. 7. Data analysis: IC50 value of the drug was calculated with SPSS19.0 statistical software.

SMILES | pIC50
COc1cc(F)ccc1-c1cc(NC(=O)[C@H]2CCC[C@@H](NC(=O)C3(C)CC3)C2)ncc1F [Compound 53] | 8.00
COc1cc(F)ccc1-c1cc(NC(=O)[C@H]2CCC[C@@H](NC(=O)C3CCN(C)CC3)C2)ncc1F [Compound 60] | 7.92
COc1cc(F)ccc1-c1cc(NC(=O)[C@H]2CCC[C@@H](NC(=O)COC(C)=O)C2)ncc1F [Compound 47] | 7.89
COc1cc(F)ccc1-c1cc(NC(=O)[C@H]2CCC[C@@H](NC(=O)C3(O)CC3)C2)ncc1F [Compound 51] | 7.89
COc1cc(F)ccc1-c1cc(NC(=O)[C@H]2CCC[C@@H](NC(=O)C3COC3)C2)ncc1F [Compound 52] | 8.10
C#CC(=O)N[C@@H]1CCC[C@H](C(=O)Nc2cc(-c3ccc(F)cc3OC)c(F)cn2)C1 [Compound 65] | 8.22
CCOCC(=O)N[C@@H]1CCC[C@H](C(=O)Nc2cc(-c3ccc(F)cc3OC)c(F)cn2)C1 [Compound 46] | 7.77
COc1cc(F)ccc1-c1cc(NC(=O)N2CCC[C@@H](NC(C)=O)C2)ncc1F [Compound 70] | 6.59
COc1cc(F)ccc1-c1cc(NC(=O)[C@H]2CCC[C@@H](NC(=O)C3CC3)C2)ncc1F [Compound 62] | 8.22
COc1cc(F)ccc1-c1cc(NC(=O)[C@H]2CCC[C@@H](NC(=O)[C@@H](C)O)C2)ncc1F [Compound 49] | 7.14
CC(=O)N[C@@H]1CCC[C@H](C(=O)Nc2cc(-c3cccc4ccoc34)c(F)cn2)C1 [Compound 19] | 7.59
COc1cc(F)ccc1-c1cc(NC(=O)[C@H]2CCC[C@@H](NC(=O)C(C)(C)O)C2)ncc1F [Compound 83] | 7.85
COc1cc(F)ccc1-c1cc(NC(=O)[C@H]2CCC[C@@H](NC(=O)C3(C#N)CN(C)C3)C2)ncc1F [Compound 77] | 7.68
COc1cc(F)ccc1-c1cc(NC(=O)[C@H]2CCC[C@@H](NC(=O)N(C)C)C2)ncc1F [Compound 38] | 8.00
COc1cc(F)ccc1-c1cc(NC(=O)C2CCCC(NC(C)=O)C2)ncc1F (stereo not drawn) [Compound 3] | 6.92
COc1cc(F)ccc1-c1cc(NC(=O)[C@H]2CCC[C@@H](NC(=O)[C@H](CC(C)C)NC(C)=O)C2)ncc1F [Compound 58] | 7.07
COc1cc(F)ccc1-c1cc(NC(=O)[C@H]2CCC[C@@H](NC(=O)C3(C#N)CCOCC3)C2)ncc1F [Compound 35] | 7.49
COc1cc(F)ccc1-c1cc(NC(=O)[C@H]2CCC[C@@H](NC(=O)CN(C)C)C2)ncc1F [Compound 40] | 8.10
COc1cc(F)ccc1-c1cc(NC(=O)[C@H]2CCC[C@@H](NC(=O)C3(C(F)(F)F)CC3)C2)ncc1F [Compound 55] | 7.85
COc1cc(F)ccc1-c1cc(NC(=O)[C@H]2CCC[C@@H](NC(=O)CS)C2)ncc1F [Compound 81] | 7.17
COc1ccccc1-c1cc(NC(=O)[C@H]2CCC[C@@H](NC(C)=O)C2)ncc1F [Compound 17] | 7.60
COc1c(-c2cc(NC(=O)[C@H]3CCC[C@@H](NC(C)=O)C3)ncc2F)ccc(F)c1F [Compound 6] | 6.75
COc1cc(F)ccc1-c1cc(NC(=O)[C@H]2CCC[C@@H](NC(=O)C3(C#N)CCN(C)CC3)C2)ncc1F [Compound 82] | 7.68
COc1cc(F)ccc1-c1cc(NC(=O)[C@H]2CCC[C@@H](NC(=O)CC3CC3)C2)ncc1F [Compound 61] | 7.32
COc1cc(F)ccc1-c1cc(NC(=O)[C@H]2CCC[C@@H](NC(=O)CNC(C)=O)C2)ncc1F [Compound 57] | 7.00

SMILES | pIC50
COc1cc(F)c(F)cc1-c1cc(NC(=O)[C@H]2CCC[C@@H](NS(C)(=O)=O)C2)ncc1F [Compound 26] | 7.05
COc1cc(F)ccc1-c1cc(NC(=O)[C@H]2CCC[C@@H](NC(=O)c3ccccn3)C2)ncc1F [Compound 43] | 7.66
COc1cc(F)ccc1-c1cc(NC(=O)[C@H]2CCC[C@@H](NC(=O)CCO)C2)ncc1F [Compound 50] | 7.43
COc1cc(F)ccc1-c1cc(NC(=O)[C@H]2CCC[C@@H](NC(=O)CC#N)C2)ncc1F [Compound 32] | 7.96
COc1cc(F)ccc1-c1cc(NC(=O)[C@H]2CCC[C@@H](NC(=O)C(F)(F)F)C2)ncc1F [Compound 42] | 7.77
COC(=O)N[C@@H]1CCC[C@H](C(=O)Nc2cc(-c3ccc(F)cc3OC)c(F)cn2)C1 [Compound 36] | 7.36
CNC(=O)N[C@@H]1CCC[C@H](C(=O)Nc2cc(-c3ccc(F)cc3OC)c(F)cn2)C1 [Compound 37] | 7.28
CC(=O)N[C@@H]1CCC[C@H](C(=O)Nc2cc(-c3ccnc4c3ccn4C)c(F)cn2)C1 [Compound 24] | 6.92
CC(=O)N[C@@H]1CCC[C@H](C(=O)Nc2cc(-c3ccnc4[nH]ccc34)c(F)cn2)C1 [Compound 23] | 7.64
COc1cc(F)ccc1-c1cc(NC(=O)[C@H]2CCC[C@@H](NS(C)(=O)=O)C2)ncc1F [Compound 25] | 7.47
COc1cc(F)ccc1-c1cc(NC(=O)[C@H]2CCC[C@@H](NC(=O)[C@@H](CC(C)C)NC(C)=O)C2)ncc1F [Compound 59] | 8.22
CC(=O)N[C@@H]1CCC[C@H](C(=O)Nc2cc(-c3ccc(F)cc3OC(C)C)c(F)cn2)C1 [Compound 8] | 7.35
COc1cc(F)ccc1-c1cc(NC(=O)[C@H]2CCC[C@@H](NC(=O)C(=O)C3CC3)C2)ncc1F [Compound 63] | 7.02
CC(=O)N[C@@H]1CCC[C@H](C(=O)Nc2cc(-c3ccc(F)nc3F)c(F)cn2)C1 [Compound 20] | 7.17
C=CC(=O)N[C@@H]1CCC[C@H](C(=O)Nc2cc(-c3ccc(F)cc3OC)c(F)cn2)C1 [Compound 64] | 8.05
COc1cc(O)ccc1-c1cc(NC(=O)[C@H]2CCC[C@@H](NC(C)=O)C2)ncc1F [Compound 15] | 8.05
COc1cc(F)ccc1-c1cc(NC(=O)[C@H]2CCC[C@@H](NC(=O)C3(C#N)CCC3)C2)ncc1F [Compound 34] | 7.68
COc1cc(F)ccc1-c1cc(NC(=O)[C@H]2CCC[C@@H](NC(=O)C3(F)CC3)C2)ncc1F [Compound 54] | 7.92
COc1cc(F)ccc1-c1cc(NC(=O)[C@H]2CCC[C@@H](NC(=O)/C=C/CN(C)C)C2)ncc1F [Compound 66] | 7.47
CC(=O)N[C@@H]1CCC[C@H](C(=O)Nc2cc(-c3cccc4[nH]ccc34)c(F)cn2)C1 [Compound 22] | 7.44
COc1cc(F)ccc1-c1cc(NC(=O)[C@H]2CCC[C@@H](NC(=O)[C@H](C)O)C2)ncc1F [Compound 48] | 7.59
COc1cc(F)ccc1-c1cc(NC(=O)[C@H]2CCC[C@@H](NC(=O)Nc3cc(C)no3)C2)ncc1F [Compound 41] | 7.35
COc1cc(F)ccc1-c1cc(NC(=O)[C@H]2CCC[C@@H](NC(=O)CN)C2)ncc1F [Compound 56] | 7.70
COc1cc(F)ccc1-c1cc(NC(=O)[C@H]2CCC[C@@H](NC(C)=O)C2)ncc1Cl [Compound 71] | 7.80
COc1cc(F)ccc1-c1cc(NC(=O)[C@H]2CCC[C@@H](Nc3nccs3)C2)ncc1F [Compound 69] | 7.55
